SMILES strings stand for the structures.

This note sets out measurements from patent US12492181B2, “Gem-disubstituted piperidine melanocortin subtype-2 receptor (MC2R) antagonists and uses thereof” (Crinetics Pharmaceuticals, Inc., priority 2019, dated 2025).

The target in this assay is T1, hMC2 receptor (crude hMC2R membranes from CRE-bla-CHO-K1 cells stably expressing hMC2 receptor and hMRAP accessory protein) (Homo sapiens, UniProt Q01718).
T1 construct: crude membrane fractions
T1 sequence (Q01718 whole entry): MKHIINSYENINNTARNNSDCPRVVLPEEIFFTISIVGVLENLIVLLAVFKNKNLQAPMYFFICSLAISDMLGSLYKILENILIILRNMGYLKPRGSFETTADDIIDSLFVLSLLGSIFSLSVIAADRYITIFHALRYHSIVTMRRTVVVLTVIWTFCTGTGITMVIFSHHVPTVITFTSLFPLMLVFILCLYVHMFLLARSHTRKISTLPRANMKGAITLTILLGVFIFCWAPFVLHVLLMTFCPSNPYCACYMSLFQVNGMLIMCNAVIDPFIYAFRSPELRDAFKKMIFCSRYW
T1 sequence (Q8TCY5 whole entry partner): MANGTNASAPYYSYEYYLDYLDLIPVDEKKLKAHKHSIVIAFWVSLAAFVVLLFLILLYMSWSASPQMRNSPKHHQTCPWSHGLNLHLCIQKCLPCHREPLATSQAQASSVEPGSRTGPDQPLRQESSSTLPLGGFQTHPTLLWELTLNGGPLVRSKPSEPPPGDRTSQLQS
The assay can be described thus: hMC2 membrane binding assay ([125I]ACTH (1-39) Tyr23, SPA). The following applies: displacement of 0.2 nM [125I]ACTH (1-39) Tyr23 from hMC2R membranes, 1.5 hours at room temperature; read-out: MC2R binding potency. The essentials: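 Crude membranes from CRE-bla-CHO-K1 cells stably co-expressing hMC2R and hMRAP, premixed with WGA PVT SPA beads in pH 7.4 HEPES buffer (5 mM MgCl2, 1 mM CaCl2, 0.20% BSA, protease inhibitors). Compounds compete with [125I]ACTH(1-39) Tyr23, read by scintillation. Ki from non-linear regression.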
On to `CCOc1ncccc1-c1ccc(C2(C(=O)N[C@H]3CCN(C)C3)CCN(c3ncc(C(F)(F)F)cc3Cl)CC2)cn1` [Compound 1-150, 1-[3-chloro-5-(trifluoromethyl)pyridin-2-yl]-4-{2′-ethoxy-[2,3′-bipyridin]-5-yl}-N-[(3S)-1-methylpyrrolidin-3-yl]piperidine-4-carboxamide], for which the Ki was in the range of 10 to 100 nM.
For the compound `COc1ncccc1-c1ccc(C2(C(=O)N[C@@H]3CCN(C)C3)CCN(c3ccc(C(F)(F)F)cc3C#N)CC2)cn1` [Compound 1-98, 1-[2-cyano-4-(trifluoromethyl)phenyl]-4-{2′-methoxy-[2,3′-bipyridin]-5-yl}-N-[(3R)-1-methylpyrrolidin-3-yl]piperidine-4-carboxamide], the Ki was < 10 nM.
Consider `CCOc1ncccc1-c1ccc(C2(C(=O)NC3CN(C)CC3O)CCN(c3ccc(C(F)(F)F)cc3C#N)CC2)cn1` (single isomer, unassigned) [Compound 1-46, 1-[2-cyano-4-(trifluoromethyl)phenyl]-4-{2′-ethoxy-[2,3′-bipyridin]-5-yl}-N-[(3R,4R)*-4-hydroxy-1-methylpyrrolidin-3-yl]piperidine-4-carboxamide], for which the Ki was < 10 nM.
On to `CCOc1ncccc1-c1ccc(C2(NC(=O)N3CC[C@H](NC)C3)CCN(c3ccc(C(F)(F)F)cc3C#N)CC2)cn1` [Compound 2-24, (3S)—N-{1-[2-cyano-4-(trifluoromethyl)phenyl]-4-{2′-ethoxy-[2,3′-bipyridin]-5-yl}piperidin-4-yl}-3-(methylamino)pyrrolidine-1-carboxamide], for which the Ki was < 10 nM.
As to `Cn1cccc1-c1ccc(C2(C(=O)N[C@H]3CN4CCC3CC4)CCN(c3ccc(C(F)(F)F)cc3C#N)CC2)cn1` [Compound 1-188, N-[(3R)-1-azabicyclo[2.2.2]octan-3-yl]-1-[2-cyano-4-(trifluoromethyl)phenyl]-4-[6-(1-methyl-1H-pyrrol-2-yl)pyridin-3-yl]piperidine-4-carboxamide], the Ki was in the range of 10 to 100 nM.
As for `CCOc1ncccc1-c1ccc(C2(C(=O)N[C@@H]3CCN(C)C3)CCN(c3ccc(C(F)(F)F)nc3C(N)=O)CC2)cn1` [Compound 1-25, 3-(4-{2′-ethoxy-[2,3′-bipyridin]-5-yl}-4-{[(3R)-1-methylpyrrolidin-3-yl]carbamoyl}piperidin-1-yl)-6-(trifluoromethyl)pyridine-2-carboxamide], the Ki lay in the range of 10 to 100 nM.
As for `CCOc1ccccc1-c1ccc(C2(C(=O)N[C@H]3CCN(C)C3)CCN(c3ccc(C(F)(F)F)cc3C#N)CC2)cn1` [Compound 1-30, 1-[2-cyano-4-(trifluoromethyl)phenyl]-4-[6-(2-ethoxyphenyl)pyridin-3-yl]-N-[(3S)-1-methylpyrrolidin-3-yl]piperidine-4-carboxamide], the figure is < 10 nM.
As for `CCOc1ccccc1-c1ccc(C2(C(=O)NCCNC)CCN(c3ccc(C(F)(F)F)cc3F)CC2)cn1` [Compound 1-227, 4-[6-(2-ethoxyphenyl)pyridin-3-yl]-1-[2-fluoro-4-(trifluoromethyl)phenyl]-N-[2-(methylamino)ethyl]piperidine-4-carboxamide], the figure is < 10 nM.
With `CCOc1ncccc1-c1ccc(C2(C(=O)N[C@H]3CCN(C)C3)CCN(c3ccc(C#N)cc3C#N)CC2)cn1` [Compound 1-40, 1-(2,4-dicyanophenyl)-4-{2′-ethoxy-[2,3′-bipyridin]-5-yl}-N-[(3S)-1-methylpyrrolidin-3-yl]piperidine-4-carboxamide], the Ki was < 10 nM.
`COc1ncccc1-c1ccc(C2(C(=O)NCCN(C)C)CCN(c3ccc(C(F)(F)F)cc3Cl)CC2)cn1` [Compound 1-273, 1-[2-chloro-4-(trifluoromethyl)phenyl]-N-[2-(dimethylamino)ethyl]-4-{2′-methoxy-[2,3′-bipyridin]-5-yl}piperidine-4-carboxamide]: the Ki is < 10 nM.
On to `CCOc1ncccc1-c1ccc(C2(NC(=O)[C@H]3CCN(C)C3)CCN(c3ccc(C(F)(F)F)cc3C#N)CC2)cn1` [Compound 2-9, (3S)—N-{1-[2-cyano-4-(trifluoromethyl)phenyl]-4-{2′-ethoxy-[2,3′-bipyridin]-5-yl}piperidin-4-yl}-1-methylpyrrolidine-3-carboxamide], for which the Ki was < 10 nM.
Take `CN1C[C@@H](O)[C@H](NC(=O)C2(c3ccc(-c4cccn4C)nc3)CCN(c3ccc(C(F)(F)F)cc3C#N)CC2)C1` [Compound 1-269, 1-[2-cyano-4-(trifluoromethyl)phenyl]-N-[(3R,4R)-4-hydroxy-1-methylpyrrolidin-3-yl]-4-[6-(1-methyl-1H-pyrrol-2-yl)pyridin-3-yl]piperidine-4-carboxamide]: the Ki was < 10 nM.
On to `COc1ccccc1-c1ncc(C2(C(=O)NCCCN(C)C)CCN(c3ccc(C(F)(F)F)cc3C#N)CC2)cc1F` [Compound 1-199, 1-[2-cyano-4-(trifluoromethyl)phenyl]-N-[3-(dimethylamino)propyl]-4-[5-fluoro-6-(2-methoxyphenyl)pyridin-3-yl]piperidine-4-carboxamide], for which the Ki was < 10 nM.
On to `CCOc1ccccc1-c1ccc(C2(NC(=O)[C@H]3CCN(C)C3)CCN(c3ccc(C(F)(F)F)cc3C#N)CC2)cn1` [Compound 2-27, (3S)—N-{1-[2-cyano-4-(trifluoromethyl)phenyl]-4-[6-(2-ethoxyphenyl)pyridin-3-yl]piperidin-4-yl}-1-methylpyrrolidine-3-carboxamide], for which the Ki is < 10 nM.
As for `CN1CC(F)(F)C[C@@H]1CNC(=O)C1(c2ccc(-c3cccn3C)nc2)CCN(c2ccc(C(F)(F)F)cc2C#N)CC1` [Compound 1-280, 1-[2-cyano-4-(trifluoromethyl)phenyl]-N-{[(2R)-4,4-difluoro-1-methylpyrrolidin-2-yl]methyl}-4-[6-(1-methyl-1H-pyrrol-2-yl)pyridin-3-yl]piperidine-4-carboxamide], the Ki was 100 to 1000 nM.
With `CCOc1ncccc1-c1ncc(C2(C(=O)NCCNC)CCN(c3ccc(C(F)(F)F)cc3Cl)CC2)cc1F` [Compound 1-299, 1-[2-chloro-4-(trifluoromethyl)phenyl]-4-{2′-ethoxy-3-fluoro-[2,3′-bipyridin]-5-yl}-N-[2-(methylamino)ethyl]piperidine-4-carboxamide], the Ki was < 10 nM.
Regarding `CCOc1ncccc1-c1ccc(C2(C(=O)NC3CN(C)C3)CCN(c3ccc(C(F)(F)F)cc3C#N)CC2)nn1` [Compound 1-140, 1-[2-cyano-4-(trifluoromethyl)phenyl]-4-[6-(2-ethoxypyridin-3-yl)pyridazin-3-yl]-N-(1-methylazetidin-3-yl)piperidine-4-carboxamide], the Ki is < 10 nM.
Consider `CCOc1ncccc1-c1ccc(C2(C(=O)N[C@H]3CCN(C)C3)CCN(c3ccc(Cl)cc3C#N)CC2)cn1` [Compound 1-34, 1-(4-chloro-2-cyanophenyl)-4-{2′-ethoxy-[2,3′-bipyridin]-5-yl}-N-[(3S)-1-methylpyrrolidin-3-yl]piperidine-4-carboxamide], for which the Ki was < 10 nM.
In the case of `COc1ncccc1-c1ccc(C2(C(=O)N[C@@H](C)CN(C)C)CCN(c3ccc(C(F)(F)F)cc3Cl)CC2)cn1` [Compound 1-296, 1-[2-chloro-4-(trifluoromethyl)phenyl]-N-[(2S)-1-(dimethylamino)propan-2-yl]-4-{2′-methoxy-[2,3′-bipyridin]-5-yl}piperidine-4-carboxamide], the Ki is < 10 nM.
Regarding `CN1CC[C@@H](NC(=O)C2(c3ccc(-c4ccnn4C)nc3)CCN(c3ccc(C(F)(F)F)cc3C#N)CC2)C1` [Compound 1-43, 1-[2-cyano-4-(trifluoromethyl)phenyl]-4-[6-(1-methyl-1H-pyrazol-5-yl)pyridin-3-yl]-N-[(3R)-1-methylpyrrolidin-3-yl]piperidine-4-carboxamide], the Ki was < 10 nM.
Turning to `CCOc1ncccc1-c1ccc(C2(C(=O)NCCN(C)C)CCN(c3ccc(C(F)(F)F)cc3C#N)CC2)cn1` [Compound 1-15, 1-[2-cyano-4-(trifluoromethyl)phenyl]-N-[2-(dimethylamino)ethyl]-4-{2′-ethoxy-[2,3′-bipyridin]-5-yl}piperidine-4-carboxamide], the Ki is 10 to 100 nM.
For `CN1CC[C@H](NC(=O)C2(c3cnc(-c4cccn4C)c(F)c3)CCN(c3ccc(C(F)(F)F)cc3F)CC2)C1` [Compound 1-192, 1-[2-fluoro-4-(trifluoromethyl)phenyl]-4-[5-fluoro-6-(1-methyl-1H-pyrrol-2-yl)pyridin-3-yl]-N-[(3S)-1-methylpyrrolidin-3-yl]piperidine-4-carboxamide], the Ki was < 10 nM.
With `CCOc1ncccc1-c1ccc(C2(C(=O)NCCN(C)C)CCN(c3ccc(C(F)(F)F)cc3C#N)CC2)cc1` [Compound 1-8, 1-[2-cyano-4-(trifluoromethyl)phenyl]-N-[2-(dimethylamino)ethyl]-4-[4-(2-ethoxypyridin-3-yl)phenyl]piperidine-4-carboxamide], the Ki was < 10 nM.
For `COc1ccccc1-c1ccc(C2(C(=O)NC[C@H]3CN(C)CCO3)CCN(c3ccc(C(F)(F)F)cc3C#N)CC2)cn1` [Compound 1-327, 1-[2-cyano-4-(trifluoromethyl)phenyl]-4-[6-(2-methoxyphenyl)pyridin-3-yl]-N-{[(2S)-4-methylmorpholin-2-yl]methyl}piperidine-4-carboxamide], the Ki fell in the range of 10 to 100 nM.
On to `CN1CC[C@H](NC(=O)C2(c3cnc(-c4cccn4C)c(F)c3)CCN(c3ccc(C(F)(F)F)cc3C#N)CC2)C1` [Compound 1-161, 1-[2-cyano-4-(trifluoromethyl)phenyl]-4-[5-fluoro-6-(1-methyl-1H-pyrrol-2-yl)pyridin-3-yl]-N-[(3S)-1-methylpyrrolidin-3-yl]piperidine-4-carboxamide], for which the Ki was < 10 nM.
Regarding `CCOc1ccccc1-c1ccc(C2(C(=O)NC3CN(C)C3)CCN(c3ccc(Cl)cc3C#N)CC2)nn1` [Compound 1-135, 1-(4-chloro-2-cyanophenyl)-4-[6-(2-ethoxyphenyl)pyridazin-3-yl]-N-(1-methylazetidin-3-yl)piperidine-4-carboxamide], the Ki is < 10 nM.
